This note sets out measurements from ChEMBL document CHEMBL3880388, “Dihydropyrimidin-2(1H)-ones and dihydropyrimidin-2(1H)-thiones as inhibitors of sodium iodide symporter” (2014).

The nature of series [1]: Cytotoxicity against rat FRTL5 cells assessed as effect on cell growth at 1 uM measured at 24 hrs by MTT assay. In kind it is cell-based. The conditions noted are these: frtl-5, 24 h. (In general: Tetrazolium assays rely on reduction of a dye to a coloured formazan, in cell work by metabolically active cells.)
For series [2], the target named is T1, Sodium/iodide cotransporter (Rattus norvegicus, UniProt Q63008).
T1 sequence (Q63008 whole entry): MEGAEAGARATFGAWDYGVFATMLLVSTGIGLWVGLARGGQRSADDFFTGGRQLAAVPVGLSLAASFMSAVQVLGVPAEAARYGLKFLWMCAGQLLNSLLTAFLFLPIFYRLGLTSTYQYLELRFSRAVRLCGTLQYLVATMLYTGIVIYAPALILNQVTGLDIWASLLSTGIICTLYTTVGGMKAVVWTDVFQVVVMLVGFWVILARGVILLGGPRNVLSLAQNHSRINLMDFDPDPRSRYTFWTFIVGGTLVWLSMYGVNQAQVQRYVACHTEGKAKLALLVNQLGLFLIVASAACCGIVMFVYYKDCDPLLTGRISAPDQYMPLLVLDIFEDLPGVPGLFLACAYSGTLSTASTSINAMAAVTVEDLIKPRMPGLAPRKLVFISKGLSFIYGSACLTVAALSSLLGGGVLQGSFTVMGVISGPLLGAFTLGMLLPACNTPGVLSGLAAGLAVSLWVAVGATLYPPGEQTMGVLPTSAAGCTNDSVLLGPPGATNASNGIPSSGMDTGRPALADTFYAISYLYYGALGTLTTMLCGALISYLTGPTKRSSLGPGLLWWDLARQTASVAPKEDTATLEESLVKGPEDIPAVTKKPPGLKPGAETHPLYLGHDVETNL
Nature of the series: Inhibition of sodium iodide symporter in rat FRTL5 cells assessed as inhibition of iodide uptake using NaI/Na125I after 45 mins by scintillation counting method. Type of series: cell-based, FRTL-5.

For series [3], the target named is T1, Sodium/iodide cotransporter. Nature of the series: Inhibition of sodium iodide symporter in rat FRTL5 cells assessed as inhibition of iodide uptake using Na125I after 60 mins by scintillation counting method. In kind it is cell-based, FRTL-5.

Broadly, the IC50 is the point on the concentration scale where inhibition reaches its midpoint.

Turning to `COc1ccc(COC(=O)C2=C(C)NC(=O)NC2c2ccccc2F)cc1` (centres undefined), the Activity result in series [1] is “Non-Toxic”.

As to `F[B-](F)(F)c1ccc(OCc2ccccc2)cc1`, in series [2], the IC50 was determined as 400 nM.

Take `CC1=C(C(=O)OCc2ccc3c(c2)OCO3)C(c2ccco2)N(C)C(=O)N1C` (centres undefined): in series [1], the Activity entry is on record as “Non-Toxic”.

For the compound `COc1cccc(COC(=O)C2=C(C)N(C)C(=O)NC2c2ccco2)c1` (centres undefined), the Activity entry in series [1] is “Non-Toxic”.

On to `COc1ccc(COC(=O)C2=C(c3cccs3)NC(=O)NC2c2ccccc2)cc1` (centres undefined), for which the Activity entry in series [1] is recorded as “Non-Toxic”.

Turning to `CC1=C(C(=O)OCc2ccc(F)cc2)C(c2ccccc2)NC(=O)N1` (centres undefined), the Activity entry in series [1] is given as “Non-Toxic”.

On to `COc1ccc(COC(=O)C2=C(COc3ccccc3)NC(=O)NC2c2ccccc2)cc1` (centres undefined), for which the Activity entry in series [1] is on record as “Non-Toxic”.

Regarding `CCCCCC1=C(C(=O)OCc2ccc(OC)cc2)C(c2ccccc2)NC(=O)N1` (centres undefined), the Activity entry in series [1] is given as “Non-Toxic”.

`COc1ccc(COC(=O)C2=C(C)NC(=O)NC2c2ccsc2)cc1` (centres undefined): the Activity result in series [1] is “Non-Toxic”.

For `CC1=C(C(=O)OCc2ccc3c(c2)OCO3)C(c2ccccc2)NC(=O)N1` (centres undefined), the Activity result in series [1] is listed as “Non-Toxic”.

As to `COc1ccc(COC(=O)C2=C(C)NC(=O)NC2c2ccco2)cc1` (centres undefined), the Activity entry in series [1] is “Non-Toxic”.

Take `COc1ccc(COC(=O)C2=C(C)NC(=O)NC2C2CC2)cc1` (centres undefined): in series [1], the Activity result was “Non-Toxic”.

In the case of `CC1=C(C(=O)OCc2ccc3c(c2)OCO3)C(c2ccco2)NC(=O)N1` (centres undefined), the Activity entry in series [1] is listed as “Non-Toxic”.

As to `CC1=C(C(=O)OCc2ccccc2C)C(c2ccccc2)NC(=O)N1` (centres undefined), in series [1], the Activity entry is reported as “Non-Toxic”.

Regarding `COc1ccc(COC(=O)C2=C(C)NC(=O)NC2c2ccc(C)o2)cc1` (centres undefined), the Activity result in series [1] is “Non-Toxic”.

Consider `CC1=C(C(=O)OCc2ccccc2)C(c2ccccc2)NC(=O)N1` (centres undefined), for which the Activity entry in series [1] is “Non-Toxic”.

With `CC1=C(C(=O)OCc2ccc3c(c2)OCO3)C(c2ccco2)NC(=O)N1C` (centres undefined), in series [1], the Activity entry is listed as “Non-Toxic”.

As for `CCC1=C(C(=O)OCc2ccc(OC)cc2)C(c2ccccc2)NC(=O)N1` (centres undefined), the Activity entry in series [1] is given as “Non-Toxic”.

With `COc1ccc(COC(=O)C2=C(C)N(C)C(=O)N(C)C2c2ccccc2)cc1` (centres undefined), the Activity result in series [1] is given as “Non-Toxic”.

Consider `COc1ccc(COC(=O)C2=C(C)NC(=O)NC2c2ccoc2)cc1` (centres undefined), for which the Activity result in series [1] is “Non-Toxic”.

Take `COc1ccc(COC(=O)C2=C(C)N(C)C(=O)NC2c2ccccc2)cc1` (centres undefined): the Activity entry in series [1] is “Non-Toxic”.

As for `COc1ccc(COC(=O)C2=C(C)NC(=O)NC2c2cccc(Cl)c2)cc1` (centres undefined), the Activity entry in series [1] is given as “Non-Toxic”.

Take `COc1ccc(COC(=O)C2=C(C)N(C)C(=O)NC2c2ccco2)cc1` (centres undefined): the Activity result in series [1] is on record as “Non-Toxic”.

As for `CC1=C(C(=O)NCc2ccc3c(c2)OCO3)C(c2ccccc2)NC(=O)N1` (centres undefined), in series [1], the Activity entry is “Non-Toxic”.

As for `CC1=C(C(=O)OCc2ccc(Cl)cc2)C(c2ccccc2)NC(=O)N1` (centres undefined), the Activity result in series [1] is “Non-Toxic”.

Turning to `COc1ccc(COC(=O)C2=C(C)N(C)C(=O)N(C)C2c2ccco2)cc1OC` (centres undefined), the Activity entry in series [1] is reported as “Non-Toxic”.

Turning to `COc1cccc(COC(=O)C2=C(C)NC(=O)NC2c2ccccc2)c1` (centres undefined), the Activity entry in series [1] is recorded as “Non-Toxic”.

As to `COc1ccc(COC(=O)C2=C(C)NC(=O)NC2c2cccs2)cc1` (centres undefined), the Activity result in series [1] is recorded as “Non-Toxic”.

In the case of `COc1ccc(COC(=O)C2=C(Cc3cccs3)NC(=O)NC2c2ccccc2)cc1` (centres undefined), the Activity entry in series [1] is recorded as “Non-Toxic”.

For `COc1cccc(COC(=O)C2=C(C)NC(=O)NC2c2ccco2)c1` (centres undefined), in series [1], the Activity result is recorded as “Non-Toxic”.

Consider `COc1ccc(COC(=O)C2=C(C)NC(=O)NC2c2cccc(Br)c2)cc1` (centres undefined), for which, in series [1], the Activity entry was “Non-Toxic”.

`CC1=C(C(=O)OCc2ccccc2Cl)C(c2ccccc2)NC(=O)N1` (centres undefined): the Activity entry in series [1] was “Non-Toxic”.

With `COc1ccc(COC(=O)C2=C(Cc3ccccc3)NC(=O)NC2c2ccccc2)cc1` (centres undefined), in series [1], the Activity entry is given as “Non-Toxic”.

In the case of `COc1ccc(COC(=O)C2=C(CNC(=O)c3ccccc3)NC(=O)NC2c2ccccc2)cc1` (centres undefined), the Activity result in series [1] is listed as “Non-Toxic”.

Take `COc1ccc(COC(=O)C2=C(c3ccccc3)NC(=O)NC2c2ccccc2)cc1` (centres undefined): the Activity result in series [1] is “Non-Toxic”.

`COc1ccc(COC(=O)C2=C(C)NC(=O)NC2c2ccccc2)cc1` (centres undefined): in series [3], the IC50 worked out at 400 nM.

With `COc1ccc(COC(=O)C2=C(CC(C)C)NC(=O)NC2c2ccccc2)cc1` (centres undefined), in series [1], the Activity entry is “Non-Toxic”.

On to `COc1ccc(COC(=O)C2=C(C)N(C)C(=O)N(C)C2c2ccco2)cc1` (centres undefined), for which the Activity result in series [1] is given as “Non-Toxic”.

With `COc1ccc(COC(=O)C2=C(C)NC(=O)NC2c2ccc(F)cc2)cc1` (centres undefined), in series [1], the Activity result is reported as “Non-Toxic”.

For `CC1=C(C(=O)OCc2ccc3c(c2)OCO3)C(c2ccoc2)NC(=O)N1` (centres undefined), in series [1], the Activity result is “Non-Toxic”.

In the case of `COc1cccc(COC(=O)C2=C(C)N(C)C(=O)N(C)C2c2ccco2)c1` (centres undefined), the Activity entry in series [1] was “Non-Toxic”.

For `COc1ccc(COC(=O)C2=C(C3CCCCC3)NC(=O)NC2c2ccccc2)cc1` (centres undefined), the Activity entry in series [1] was “Non-Toxic”.

With `COc1ccc(COC(=O)C2=C(C)NC(=S)NC2c2ccccc2)cc1` (centres undefined), the Activity result in series [1] is listed as “Non-Toxic”.

For `COc1ccc(COC(=O)C2=C(C)NC(=O)NC2c2cccc(F)c2)cc1` (centres undefined), the Activity entry in series [1] is listed as “Non-Toxic”.
